“And” between values parts separate entries of the source, which are not always exact repeats. Equal entries are not always repeated. “Also recorded” adds a separate entry of the source.
Legend:
[1] = tested on: motor neurons in embryonic rat spinal cord cultures; experiment: Excitotoxicity assay (100 μM kainic acid) in mixed spinal cord cultures; type: cell-based; conditions: for excitotoxic motor neuron death: drug for 4 days (added 4 and 2 days) prior to 100 μM kainic acid 1 h, SMI-32(+) motor neurons counted 24 h later; for % of motor neurons killed (cell death) after excitotoxic insult: 4 day pre-treatment prior to 100 μM kainic acid
Method: Unless otherwise specified, BDNF was added to all cultures.
Many previous in vitro investigations have identified motor neurons in mixed spinal cord cell culture by immunostaining for non-phosphorylated neurofilaments (or peripherin) and restricting analysis to cells with a soma diameter of 25 μm or greater (Carriedo et al., 2000; Hu and Kalb, 2003). We wanted to confirm the validity of this approach using an independent method for determining whether a given cell is a motor neuron. To specifically identify motor neurons in our cultures we purified these cells by metrizamide gradient and immunopanning techniques (Henderson et al., 1993; Fryer et al., 1999), live-labeled them with CM-DiI, and added these fluorescently-tagged, bona fide motor neurons to mixed cell cultures at the time of initial plating. All CM-DiI labeled cells stained for motor neurons markers such as non-phosphorylated neurofilament H (using antibody, SMI-32), peripherin, choline acetyl transferase (ChAT) and islet ½ (FIG. 1, panel a.). We then subjected spinal cord cultures to an excitotoxic insult and determined motor neuron survival using multiple methods for identifying motor neurons. […] Since all SMI-32 (+) cells with cell body diameter of 25 μm or greater were CM-DiI (+) and all CM-DiI (+) cells were SMI-32 (+), for the remainder of the studies herein, we could confidently study motor neuron death in vitro by counting SMI-32 (+) cells with a cell body diameter of 25 μm or greater.

[2] = tested on: motor neurons expressing G85R SOD; experiment: Motor neuron death from HSV-expressed mutant SOD in spinal cord cultures; type: cell-based, rat; conditions: 6 days post-infection; treatment daily or every other day
Description: (§1) Various cDNAs were cloned into the PrpUC amplicon plasmid and were used to generate recombinant HSV as previously described (Neve et al., 1997). The titer of viruses used in these studies were routinely 3-5×10^7 plaque-forming units/ml. The cDNA for wild type/mutant SOD and wild type/mutant p150^glued were gifts of D. Borchelt and E. Holzbaur, respectively. The K295R mutant version of chick src was a gift of J. Brugge.
(§2) Mutations in superoxide dismutase (SOD) or the p150^glued subunit of dynactin are known to account for a familial form of ALS in a subpopulation of individuals (Rosen, 1993; Puls et al., 2003; Bruijn et al., 2004). We inquired whether expression the mutant forms of SOD or p150^glued caused motor neuron death in vitro and if Trk antagonism was neuroprotective. Recombinant herpes simplex viruses (HSVs) were generated that expressed wild type or mutant form of SOD (G85R) and wild type or mutant p150^glued (G59S). […] Spinal cord cultures were infected with virus at 14 DIV and the number of motor neurons was determined 2, 4, 6 or 8 days later (FIG. 4, panel a.).
(§3) We next determined if KW6002 could protect motor neurons from the toxic effects of mutant proteins. Spinal cord cultures were infected with viruses expressing wild type or mutant versions of SOD or p150^glued at 14 DIV, then treated with drug or vehicle for 4 days (FIG. 4, panel b.). […]

[3] = tested on: motor neurons expressing G59S p150^glued; experiment: Motor neuron death from HSV-expressed mutant p150glued in spinal cord cultures; type: cell-based, rat; conditions: 6 days post-infection; treatment daily or every other day
Description: as §1, §2, §3

[4] = tested on: motor neurons in embryonic rat spinal cord cultures; conditions: Mojsilovic-Petrovic et al., 2005; cited from earlier work
Trk = experiment: Immunoblot for phosphoTrk in spinal cord cultures; type: cell-based, rat; conditions: 24 hours treatment
Method: (§4) Cells were lysed in 1% NP-40 lysis buffers containing protease inhibitors, subjected to SDS-PAGE and immunoblotted as previously described (Fryer et al., 1999; Fryer et al., 2000). For immunoprecipitation, lysates from 60 mm dishes were pre-cleared by incubation with protein A beads (Santa Cruz), incubated with primary antibody (4 μg/ml)×2 hours then 50 μL of beads added and incubated overnight with gentle agitation at 4° C. Beads were pelleted, washed 5× with 10 mM Tris pH 7.4+0.5 mM EGTA+0.5 mM EDTA+0.1% NP40 before elution in 1× Laemelli sample buffer. Antibody sources: BD Transduction Labs—TrkB and MAP Kinase used at 1:500, Cell Signaling—Akt 1:1000; phosphoTrk (tyr490) 1:1000; phospho p42/44 MAP Kinase (thr 202/tyr204) 1:1000; phosphoAkt (ser473) 1:500; IGFI antibody (tyr 1131) 1:500. Upstate—adenosine A2a 1:1000. Sigma—actin 1:200. Biosource—active src (clone 28) 1:200.
(§5) We next asked about the effect of the adenosine A2 receptor antagonism on Trk signaling. Cultures of spinal cord cells (grown in the presence of a cocktail of trophic factors including 10 ng/ml BDNF) received KW6002 (1 μM), MRS1754 (50 nM) or vehicle (DMSO 0.1%) and 24 hrs. later, lysates were prepared for immunoblots for Trk and the MAP kinase downstream signaling module (FIG. 2, panel a). Immunoblots for phosphoTrk and phosphoMAPK were employed to monitor the state of activation of these proteins.
(§6) We followed up these observations by determining the effect of enprofylline on Trk signaling and determined the extent to which the resultant biochemical changes mimic the effects of direct pharmacological Trk antagonism with CEP4416. […] The effect of drug treatment on AKT was particularly marked. […] To determine the specificity of these agents, we examined their effect on Insulin-like growth factor 1 (IGF1) signaling through the IGF receptor tyrosine kinase (IGFR). […] It is unlikely that phosphodiesterase activity of enprofylline can explain these observations as increased cAMP levels enhance, not suppress, TrkB activation (Boulanger and Poo, 1999; Ji et al., 2005).

MAP kinase = experiment: Immunoblot for phosphoMAPK in spinal cord cultures; type: cell-based, rat; conditions: 24 hours treatment
Method: as §4, §5, §6

src-family kinases (SFK) = experiment: Immunoblot for active SFKs (clone 28 antibody) in spinal cord cultures; type: cell-based, rat; conditions: 24 hours treatment; listed as MRS 1754
Method: as §4
The precise mechanism by which G-protein coupled receptors trans-activate receptor tyrosine kinases is complex and to some extent receptor-subtype specific (Luttrell et al., 1999; Downward, 2003; Piiper and Zeuzem, 2004; Waters et al., 2004). […] If this pathway was operative in spinal cord neurons, then antagonism of adenosine A2a receptors might lead to reduced src activation and antagonism of SFKs might be neuro-protective. Src is negatively regulated by phosphorylation of tyrosine 529 (refers to human src sequence) and an antibody that recognizes a de-phospho epitope in this region (“clone 28”) is a reliable measure of active src and SFKs (Kawakatsu et al., 1996). We began by asking for adenosine A2a receptors and active SFKs are present in the same cells and if so, their subcellular distribution. Pure motor neurons, grown in the presence of BDNF were immunostained with a rabbit anti-adenosine A2a receptor and the clone 28 antibody. One hundred percent of motor neurons expressed both antigens and on dendrites, the immunoreactivity formed discrete fine puncta (FIG. 5a). Many, but not all, puncta were stained with both antibodies. […]

[5] = tested on: IGF receptor tyrosine kinase (IGFR); experiment: Immunoblot for phospho-IGFR in spinal cord cultures; type: cell-based, rat; conditions: 5 nM, 30 min
Method: as §4, §6

C[C@]12O[C@H](C[C@]1(O)CO)n1c3ccccc3c3c4c(c5c6ccccc6n2c5c31)CNC4=O [CEP701]
excitotoxic motor neuron death [1]: No motor neuron death occurred
excitotoxic motor neuron death ([1]; listed as CEP-701): completely blocked the loss of SMI(+) neurons

N#Cc1cc2[nH]c(=O)c(=O)[nH]c2cc1[N+](=O)[O-] [CNQX]
motor neuron survival / toxicity of G85R SOD [2]: significantly greater number of motor neurons; also recorded: completely prevented the toxicity of mutant protein expression
motor neuron survival / toxicity of G59S p150glued [3]: significantly greater number of motor neurons; also recorded: completely prevented the toxicity of mutant protein expression

CCCn1c(=O)c2[nH]c(C3CCCC3)nc2n(CCC)c1=O [DPCPX]
excitotoxic cell death in pre-treated cultures (previous observations) [4]: death occurred

O=S(=O)(NCCNC/C=C/c1ccc(Br)cc1)c1cccc2cnccc12 [H89]
% of motor neurons killed (cell death) after excitotoxic insult [1]: 40% and 53±5%

CCCn1c(=O)c2[nH]c(-c3ccc(OCC(=O)Nc4ccc(C#N)cc4)cc3)nc2n(CCC)c1=O [MRS1754]
% of motor neurons killed (cell death) after excitotoxic insult [1]: 50%
% of motor neurons killed (cell death) after excitotoxic insult ([1]; listed as MRS 1754): ~40%
abundance of phosphoTrk (Trk): indistinguishable from the vehicle control
abundance of phosphoMAPK (MAP kinase): indistinguishable from the vehicle control
abundance of active SFKs (src-family kinases (SFK)): only reduced in cultures treated with KW6002

Cc1ccc(-c2nn(C(C)(C)C)c3ncnc(N)c23)cc1 [PP1]
% motor neuron survival after excitotoxic challenge ([1]; SFK inhibition before excitotoxicity assay): 100±2%
number of motor neurons surviving excitotoxic challenge ([1]; SFK inhibition, versus LacZ or vehicle): statistically significant greater number of motor neurons
abundance of phosphoTrk (Trk): reduction in the abundance of phosphorylated Trk; also recorded: reduction in the abundance of phosphoTrk

Nc1ncnc2c1ncn2C1CCCO1 (stereo not drawn) [SQ 22536]
% of motor neurons killed (cell death) after excitotoxic insult [1]: 40% and 42±4%
basal survival of motor neurons ([1]; 4 day pre-treatment, without excitotoxic challenge): did not adversely affect the basal survival of motor neurons

Nc1nc(NCCc2ccc(O)cc2)nc2nc(-c3ccco3)nn12 [ZM241385]
excitotoxic cell death in pre-treated cultures (previous observations) [4]: no excitotoxic cell death

CCCC(=O)Nc1ncnc2c1ncn2[C@@H]1O[C@@H]2COP(=O)(O)O[C@H]2[C@H]1OC(=O)CCC [db-cAMP, dibutryl-cAMP]
% of motor neurons killed (cell death) after excitotoxic insult [1]: −2±3%
excitotoxic motor neuron death [1]: No excitotoxic cell death occured

C=C(C)[C@H]1CN[C@H](C(=O)O)[C@H]1CC(=O)O [kainic acid]
loss of motor neurons ([1]; 100 μM for 1 hour, counted 24 hours later, 14-16 DIV): ~45%

IGF1: Insulin-like growth factor 1
IGFR phosphorylation upon acute administration [5]: robust induction of phospho-IGFR; also recorded: strong increase in IGFR phosphorylation

From patent US20070037833A1, “Compositions and methods for inhibiting neurodegeneration” (priority 2005, published 2007)
